Source: PubChem BioAssay (NCI)
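Test compounds were applied to cells in 96-well plates for 48 hours at 5 doses. GI50 = concentration required for 50% inhibition of growth. TGI is the concentration that stops growth completely.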

Legend:
Test in all cases: growth of human tumour cells (NCI), 48 h; in the data active means GI50 below about 0.43 µM; inactive means the rest
NCI-H226 lung = test system: NCI-H226 lung
M14 melanoma = test system: M14 melanoma
IGROV1 ovarian = test system: IGROV1 ovarian
HCC-2998 colon = test system: HCC-2998 colon
SR leukemia = test system: SR leukemia
SK-MEL-5 melanoma = test system: SK-MEL-5 melanoma
HCT-15 colon = test system: HCT-15 colon
MDA-MB-435 = test system: MDA-MB-435
MOLT-4 leukemia = test system: MOLT-4 leukemia
HOP-62 NSCLC = test system: HOP-62 NSCLC
SW-620 colon = test system: SW-620 colon
COLO 205 colon = test system: COLO 205 colon
T-47D breast = test system: T-47D breast
A549 NSCLC = test system: A549 NSCLC
LOX IMVI melanoma = test system: LOX IMVI melanoma
PC-3 prostate = test system: PC-3 prostate
SN12C renal = test system: SN12C renal
MDA-MB-231 breast = test system: MDA-MB-231 breast
CCRF-CEM leukemia = test system: CCRF-CEM leukemia
SNB-75 CNS = test system: SNB-75 CNS
OVCAR-5 ovarian = test system: OVCAR-5 ovarian
OVCAR-4 ovarian = test system: OVCAR-4 ovarian
RXF 393 renal = test system: RXF 393 renal
ACHN renal = test system: ACHN renal
A498 renal = test system: A498 renal
SK-OV-3 ovarian = test system: SK-OV-3 ovarian
RPMI-8226 leukemia = test system: RPMI-8226 leukemia
HOP-92 NSCLC = test system: HOP-92 NSCLC
786-0 renal = test system: 786-0 renal
UACC-62 melanoma = test system: UACC-62 melanoma
MALME-3M melanoma = test system: MALME-3M melanoma
OVCAR-3 ovarian = test system: OVCAR-3 ovarian
SF-268 CNS = test system: SF-268 CNS
CAKI-1 renal = test system: CAKI-1 renal
SNB-19 CNS = test system: SNB-19 CNS
NCI-H460 lung = test system: NCI-H460 lung
SK-MEL-28 melanoma = test system: SK-MEL-28 melanoma
NCI/ADR-RES ovarian = test system: NCI/ADR-RES ovarian
SF-539 CNS = test system: SF-539 CNS
MCF7 breast = test system: MCF7 breast
NCI-H23 lung = test system: NCI-H23 lung
OVCAR-8 ovarian = test system: OVCAR-8 ovarian
SK-MEL-2 melanoma = test system: SK-MEL-2 melanoma
KM12 colon = test system: KM12 colon
UO-31 renal = test system: UO-31 renal
BT-549 breast = test system: BT-549 breast
HT29 colon = test system: HT29 colon
HL-60(TB) leukemia = test system: HL-60(TB) leukemia
HS 578T breast = test system: HS 578T breast
DU-145 prostate = test system: DU-145 prostate
TK-10 renal = test system: TK-10 renal
HCT-116 colon = test system: HCT-116 colon
K-562 leukemia = test system: K-562 leukemia
NCI-H522 lung = test system: NCI-H522 lung
EKVX NSCLC = test system: EKVX NSCLC
U251 CNS = test system: U251 CNS
UACC-257 melanoma = test system: UACC-257 melanoma
SF-295 CNS = test system: SF-295 CNS

CC(=O)OC1CC(C)c2c(Cl)ncnc21 (configuration not stated)
41.7 µM: TGI (NCI-H522 lung)
inactive: GI50 (NCI-H226 lung) > 100 µM | GI50 (M14 melanoma) > 100 µM | GI50 (IGROV1 ovarian) > 100 µM | GI50 (HCC-2998 colon) > 100 µM | GI50 (SR leukemia) 78.2 µM | GI50 (SK-MEL-5 melanoma) > 100 µM | GI50 (HCT-15 colon) > 100 µM | GI50 (MDA-MB-435) > 100 µM | GI50 (MOLT-4 leukemia) > 100 µM | GI50 (HOP-62 NSCLC) > 100 µM | GI50 (SW-620 colon) > 100 µM | GI50 (COLO 205 colon) > 100 µM | GI50 (T-47D breast) > 100 µM | GI50 (A549 NSCLC) > 100 µM | GI50 (LOX IMVI melanoma) > 100 µM | GI50 (PC-3 prostate) > 100 µM | GI50 (SN12C renal) > 100 µM | GI50 (MDA-MB-231 breast) > 100 µM | GI50 (CCRF-CEM leukemia) 50.1 µM | GI50 (SNB-75 CNS) > 100 µM | GI50 (OVCAR-5 ovarian) > 100 µM | GI50 (OVCAR-4 ovarian) > 100 µM | GI50 (RXF 393 renal) > 100 µM | GI50 (ACHN renal) > 100 µM | GI50 (A498 renal) > 100 µM | GI50 (SK-OV-3 ovarian) > 100 µM | GI50 (RPMI-8226 leukemia) > 100 µM | GI50 (HOP-92 NSCLC) > 100 µM | GI50 (786-0 renal) > 100 µM | GI50 (UACC-62 melanoma) > 100 µM | GI50 (MALME-3M melanoma) > 100 µM | GI50 (OVCAR-3 ovarian) > 100 µM | GI50 (SF-268 CNS) > 100 µM | GI50 (CAKI-1 renal) 45.7 µM | GI50 (SNB-19 CNS) > 100 µM | GI50 (NCI-H460 lung) > 100 µM | GI50 (SK-MEL-28 melanoma) > 100 µM | GI50 (NCI/ADR-RES ovarian) > 100 µM | GI50 (SF-539 CNS) > 100 µM | GI50 (MCF7 breast) > 100 µM | GI50 (NCI-H23 lung) > 100 µM | GI50 (OVCAR-8 ovarian) > 100 µM | GI50 (SK-MEL-2 melanoma) > 100 µM | GI50 (KM12 colon) > 100 µM | GI50 (UO-31 renal) > 100 µM | GI50 (BT-549 breast) > 100 µM | GI50 (HT29 colon) > 100 µM | GI50 (HL-60(TB) leukemia) > 100 µM | GI50 (HS 578T breast) > 100 µM | GI50 (DU-145 prostate) > 100 µM | GI50 (TK-10 renal) > 100 µM | GI50 (HCT-116 colon) > 100 µM | GI50 (K-562 leukemia) > 100 µM | GI50 (NCI-H522 lung) 18 µM
> 100 µM: TGI (NCI-H226 lung) | TGI (M14 melanoma) | TGI (IGROV1 ovarian) | TGI (HCC-2998 colon) | TGI (SR leukemia) | TGI (SK-MEL-5 melanoma) | TGI (HCT-15 colon) | TGI (MDA-MB-435) | TGI (MOLT-4 leukemia) | TGI (HOP-62 NSCLC) | TGI (SW-620 colon) | TGI (COLO 205 colon) | TGI (T-47D breast) | TGI (A549 NSCLC) | TGI (LOX IMVI melanoma) | TGI (PC-3 prostate) | TGI (SN12C renal) | TGI (MDA-MB-231 breast) | TGI (CCRF-CEM leukemia) | TGI (SNB-75 CNS) | TGI (OVCAR-5 ovarian) | TGI (OVCAR-4 ovarian) | TGI (RXF 393 renal) | TGI (ACHN renal) | TGI (A498 renal) | TGI (SK-OV-3 ovarian) | TGI (RPMI-8226 leukemia) | TGI (HOP-92 NSCLC) | TGI (786-0 renal) | TGI (UACC-62 melanoma) | TGI (MALME-3M melanoma) | TGI (OVCAR-3 ovarian) | TGI (SF-268 CNS) | TGI (CAKI-1 renal) | TGI (SNB-19 CNS) | TGI (NCI-H460 lung) | TGI (SK-MEL-28 melanoma) | TGI (NCI/ADR-RES ovarian) | TGI (SF-539 CNS) | TGI (MCF7 breast) | TGI (NCI-H23 lung) | TGI (OVCAR-8 ovarian) | TGI (SK-MEL-2 melanoma) | TGI (KM12 colon) | TGI (UO-31 renal) | TGI (BT-549 breast) | TGI (HT29 colon) | TGI (HL-60(TB) leukemia) | TGI (HS 578T breast) | TGI (DU-145 prostate) | TGI (TK-10 renal) | TGI (HCT-116 colon) | TGI (K-562 leukemia)

COCO[C@@H]1CC2C=Nc3cc(OCc4ccccc4)c(OC)cc3C(=O)N2C1 (some centres not stated)
5.24 µM: TGI (DU-145 prostate)
2.39 µM: TGI (BT-549 breast)
1.57 µM: TGI (MDA-MB-231 breast)
1.97 µM: TGI (NCI-H23 lung)
6.83 µM: TGI (HOP-92 NSCLC)
6.39 µM: TGI (NCI/ADR-RES ovarian)
6.2 µM: TGI (SK-OV-3 ovarian)
3.25 µM: TGI (A498 renal)
9.31 µM: TGI (SF-268 CNS)
12.6 µM: TGI (SK-MEL-28 melanoma)
4.97 µM: TGI (HS 578T breast)
61.1 µM: TGI (NCI-H226 lung)
10.4 µM: TGI (LOX IMVI melanoma)
2.14 µM: TGI (SN12C renal) | TGI (UO-31 renal)
4.85 µM: TGI (EKVX NSCLC)
27.5 µM: TGI (OVCAR-4 ovarian)
0.513 µM: TGI (CAKI-1 renal)
2.08 µM: TGI (SK-MEL-2 melanoma)
14.3 µM: TGI (NCI-H460 lung)
8.61 µM: TGI (SW-620 colon)
9.15 µM: TGI (A549 NSCLC)
2.8 µM: TGI (HOP-62 NSCLC)
21.6 µM: TGI (CCRF-CEM leukemia)
> 20.8 µM: TGI (RPMI-8226 leukemia)
inactive: GI50 (EKVX NSCLC) 1.09 µM | GI50 (NCI-H226 lung) 2.88 µM | GI50 (IGROV1 ovarian) 0.436 µM | GI50 (HCC-2998 colon) 0.519 µM | GI50 (HCT-15 colon) 0.844 µM | GI50 (MDA-MB-435) 0.455 µM | GI50 (U251 CNS) 0.508 µM | GI50 (SW-620 colon) 0.482 µM | GI50 (A549 NSCLC) 0.468 µM | GI50 (PC-3 prostate) 1.09 µM | GI50 (SN12C renal) 0.49 µM | GI50 (SNB-75 CNS) 1.09 µM | GI50 (OVCAR-5 ovarian) 0.765 µM | GI50 (OVCAR-4 ovarian) 1.32 µM | GI50 (UACC-257 melanoma) 1.09 µM | GI50 (A498 renal) 0.976 µM | GI50 (SK-OV-3 ovarian) 0.611 µM | GI50 (HOP-92 NSCLC) 0.456 µM | GI50 (786-0 renal) 1.3 µM | GI50 (UACC-62 melanoma) 0.463 µM | GI50 (SF-268 CNS) 0.646 µM | GI50 (SNB-19 CNS) 1.06 µM | GI50 (SF-295 CNS) 0.559 µM | GI50 (SK-MEL-28 melanoma) 1.6 µM | GI50 (NCI/ADR-RES ovarian) 0.703 µM | GI50 (NCI-H23 lung) 0.672 µM | GI50 (SK-MEL-2 melanoma) 0.49 µM | GI50 (KM12 colon) 0.578 µM | GI50 (HL-60(TB) leukemia) 0.486 µM | GI50 (HS 578T breast) 0.572 µM | GI50 (TK-10 renal) 0.869 µM | GI50 (HCT-116 colon) 0.66 µM | GI50 (K-562 leukemia) 0.45 µM
10.6 µM: TGI (KM12 colon)
0.815 µM: TGI (SF-539 CNS)
6.52 µM: TGI (OVCAR-8 ovarian)
1.86 µM: TGI (MDA-MB-435)
1.03 µM: TGI (UACC-62 melanoma)
26 µM: TGI (HCT-116 colon)
3.13 µM: TGI (OVCAR-3 ovarian)
12.1 µM: TGI (SF-295 CNS)
0.972 µM: TGI (RXF 393 renal)
36.9 µM: TGI (PC-3 prostate)
> 35.4 µM: TGI (MCF7 breast)
30.9 µM: TGI (786-0 renal)
5.79 µM: TGI (OVCAR-5 ovarian)
0.64 µM: TGI (NCI-H522 lung)
20.5 µM: TGI (IGROV1 ovarian)
44.6 µM: TGI (SNB-19 CNS)
active: GI50 (M14 melanoma) 0.42 µM | GI50 (SK-MEL-5 melanoma) 0.357 µM | GI50 (MOLT-4 leukemia) 0.175 µM | GI50 (HOP-62 NSCLC) 0.351 µM | GI50 (COLO 205 colon) 0.181 µM | GI50 (T-47D breast) 0.154 µM | GI50 (LOX IMVI melanoma) 0.305 µM | GI50 (MDA-MB-231 breast) 0.248 µM | GI50 (CCRF-CEM leukemia) 0.313 µM | GI50 (RXF 393 renal) 0.242 µM | GI50 (ACHN renal) 0.338 µM | GI50 (RPMI-8226 leukemia) 0.211 µM | GI50 (MALME-3M melanoma) 0.37 µM | GI50 (OVCAR-3 ovarian) 0.222 µM | GI50 (CAKI-1 renal) 0.209 µM | GI50 (NCI-H460 lung) 0.36 µM | GI50 (SF-539 CNS) 0.163 µM | GI50 (MCF7 breast) 0.273 µM | GI50 (OVCAR-8 ovarian) 0.348 µM | GI50 (UO-31 renal) 0.237 µM | GI50 (BT-549 breast) 0.31 µM | GI50 (HT29 colon) 0.4 µM | GI50 (DU-145 prostate) 0.426 µM | GI50 (NCI-H522 lung) 0.152 µM
6.56 µM: TGI (HCT-15 colon)
1.39 µM: TGI (M14 melanoma)
2.63 µM: TGI (HCC-2998 colon)
14.1 µM: TGI (U251 CNS)
2.79 µM: TGI (MALME-3M melanoma)
0.908 µM: TGI (SK-MEL-5 melanoma)
1.71 µM: TGI (ACHN renal)
0.386 µM: TGI (COLO 205 colon)
> 100 µM: TGI (HT29 colon) | TGI (HL-60(TB) leukemia) | TGI (K-562 leukemia)
